For 16 compounds, AC1.4 results are on record in US20220332708A1 (Cytokinetics, Inc., priority 2021, published 2022).

For this assay, the system named is Bovine cardiac myofibrils. Nature of the assay: Dose-dependent myofibril ATPase modulation (calcium-buffered, pyruvate kinase and lactate dehydrogenase-coupled ATPase assay at pCa25). Type of assay: biochemical. Conditions: concentration at which ATPase activity was 1.4-fold higher than the bottom of the dose curve, mean of a minimum of two independent tests. Put shortly: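 Detergent-skinned bovine cardiac myofibrils (typically 0.25-1.0 mg/ml) in a pyruvate kinase/lactate dehydrogenase-coupled ATPase assay, 1 mM ATP, pH 6.80, free Ca2+ set by EGTA buffer to pCa25. ATP hydrolysis followed by A340; 4-parameter fit, AC1.4 as mean of at least two independent tests.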

As for `Cc1[nH]c(S(=O)(=O)NC23COc4cc(F)c(Cl)cc4C2C3)cc1C(=O)N1CC(C#N)C1` (stereo not shown) [Compound 81, N-(6-chloro-5-fluoro-1,7b-dihydrocyclopropa[c]chromen-1a(2H)-yl)-4-(3-cyanoazetidine-1-carbonyl)-5-methyl-1H-pyrrole-2-sulfonamide], the AC1.4 amounted to 1.194 µM. On to `Cc1[nH]c(S(=O)(=O)N[C@@H]2Cc3cc(Cl)c(Cl)cc3[C@@]2(C)O)cc1C(=O)N1CC(C)(C#N)C1` [Compound 82, 4-(3-cyano-3-methylazetidine-1-carbonyl)-N-((1R,2R)-5,6-dichloro-1-hydroxy-1-methyl-2,3-dihydro-1H-inden-2-yl)-5-methyl-1H-pyrrole-2-sulfonamide], for which the AC1.4 was 0.6173 µM. The result for `Cc1cc(S(=O)(=O)N[C@@H]2COc3cc(F)c(Cl)cc3[C@@H]2O)cc(N2CC(C#N)C2)n1` [Compound 85, N-((3R,4S)-6-chloro-7-fluoro-4-hydroxychroman-3-yl)-2-(3-cyanoazetidin-1-yl)-6-methylpyridine-4-sulfonamide] reads 1.3618 µM.

For `Cc1cc(S(=O)(=O)N[C@@H]2COc3cc(F)c(Cl)cc3[C@@H]2O)cc(N2CC(O)C2)n1` [Compound 86, N-((3R,4S)-6-chloro-7-fluoro-4-hydroxychroman-3-yl)-2-(3-hydroxyazetidin-1-yl)-6-methylpyridine-4-sulfonamide], the AC1.4 is 13.53 µM. The result for `Cc1cc(S(=O)(=O)N[C@@H]2COc3cc(F)c(Cl)cc3[C@@H]2O)cc(N2CC(C)(C)C2)n1` [Compound 87, N-((3R,4S)-6-chloro-7-fluoro-4-hydroxychroman-3-yl)-2-(3,3-dimethylazetidin-1-yl)-6-methylpyridine-4-sulfonamide] reads 3.783 µM; that for `Cc1cc(S(=O)(=O)N[C@@H]2COc3cc(F)c(Cl)cc3[C@@H]2O)cc(N2CC(OC(F)F)C2)n1` [Compound 88, N-((3R,4S)-6-chloro-7-fluoro-4-hydroxychroman-3-yl)-2-(3-(difluoromethoxy)azetidin-1-yl)-6-methylpyridine-4-sulfonamide], 2.209 µM. Consider `Cc1[nH]c(S(=O)(=O)N[C@@H]2Cc3cc(F)c(Cl)cc3[C@H]2O)cc1C(=O)N1CC(C)(C#N)C1` [Compound 89], for which the AC1.4 is 0.2521 µM. `Cc1cc(S(=O)(=O)N[C@@H]2COc3cc(F)c(Cl)cc3[C@@H]2O)cc(N2CC(C(F)F)C2)n1` [Compound 90]: the AC1.4 was 5.312 µM. With `Cc1cc(S(=O)(=O)N[C@@H]2COc3cc(F)c(Cl)cc3[C@@H]2O)cc(N2CC[C@@H](C#N)C2)n1` [Compound 91, N-((3R,4S)-6-chloro-7-fluoro-4-hydroxychroman-3-yl)-2-((R)-3-cyanopyrrolidin-1-yl)-6-methylpyridine-4-sulfonamide], the AC1.4 came to 1.417 µM. The value for `Cc1[nH]c(S(=O)(=O)N[C@@H]2Cc3cc(F)c(Cl)cc3C2)cc1C(=O)N1CC(C(F)(F)F)C1` [Compound 93, (R)-N-(5-chloro-6-fluoro-2,3-dihydro-1H-inden-2-yl)-5-methyl-4-(3-(trifluoromethyl)azetidine-1-carbonyl)-1H-pyrrole-2-sulfonamide] was 0.1626 µM; that for `Cc1[nH]c(S(=O)(=O)N[C@@H]2Cc3cc(F)c(Cl)cc3C2)cc1C(=O)N1CC(OC(F)(F)F)C1` [Compound 94, (R)-N-(5-chloro-6-fluoro-2,3-dihydro-1H-inden-2-yl)-5-methyl-4-(3-(trifluoromethoxy)azetidine-1-carbonyl)-1H-pyrrole-2-sulfonamide] was 0.6847 µM. The result for `Cc1[nH]c(S(=O)(=O)N[C@@H]2Cc3cc(F)c(Cl)cc3C2)cc1C(=O)N1CC(C)(O)C1` [Compound 95, (R)-N-(5-chloro-6-fluoro-2,3-dihydro-1H-inden-2-yl)-4-(3-hydroxy-3-methylazetidine-1-carbonyl)-5-methyl-1H-pyrrole-2-sulfonamide] reads 0.9577 µM; that for `Cc1[nH]c(S(=O)(=O)N[C@@H]2Cc3cc(F)c(Cl)cc3C2)cc1C(=O)N1CC2(COC2)C1` [Compound 96, (R)-N-(5-chloro-6-fluoro-2,3-dihydro-1H-inden-2-yl)-5-methyl-4-(2-oxa-6-azaspiro[3.3]heptane-6-carbonyl)-1H-pyrrole-2-sulfonamide], 1.218 µM; that for `Cc1[nH]c(S(=O)(=O)N[C@@H]2Cc3cc(F)c(Cl)cc3C2)cc1C(=O)N1CC2(C1)CC(F)(F)C2` [Compound 97, (R)-N-(5-chloro-6-fluoro-2,3-dihydro-1H-inden-2-yl)-4-(6,6-difluoro-2-azaspiro[3.3]heptane-2-carbonyl)-5-methyl-1H-pyrrole-2-sulfonamide], 0.2269 µM. The result for `[2H]C([2H])([2H])c1[nH]c(S(=O)(=O)N[C@@H]2Cc3cc(F)c(Cl)cc3C2)cc1C(=O)N1CC(OC(F)(F)F)C1` [Compound 98, (R)-N-(5-chloro-6-fluoro-2,3-dihydro-1H-inden-2-yl)-5-(methyl-d3)-4-(3-(trifluoromethoxy)azetidine-l-carbonyl)-1H-pyrrole-2-sulfonamide] reads 0.6667 µM; that for `CNc1cc2c(cc1S(=O)(=O)N[C@H]1C[C@H](Nc3ccccc3)C1)c(=O)[nH]c(=O)n2C` [Compound 100, 1-Methyl-7-(methylamino)-2,4-dioxo-N-((1r,3r)-3-(phenylamino)cyclobutyl)-1,2,3,4-tetrahydroquinazoline-6-sulfonamide], 5.571 µM.
